Read-outs that look alike come from different tables or passages of the source.
Experiments:
[1] = system: KRAS G12C mutant MIA PaCa-2 pancreatic xenograft; format: in vivo, mouse; details: monotherapy
Description: In Vivo Efficacy Experiments
Cultures are incubated at 37° C. and 5% CO2 in a humidified atmosphere, with medium change or subcultivation performed 2-3 times a week. For injection tumor cells are mixed with PBS including 5% FCS and Matrigel in a ratio of 1:1. 1×10EXP7 cells in a volume of 100 μL are injected subcutaneous in each mouse to establish tumors. […] The vehicle control, trametinib, 1-13 or the respective combination is administered intragastrically using a gavage needle at an application volume of 10 mL/kg in a volume of 10 mL/kg per mouse daily twice with a 6 h difference. Trametinib is dissolved in 0.5% DMSO and 0.5% Natrosol. Paclitaxel is formulated in 0.9% NaCl and is applied intravenously once a week at 10 mg/kg in a volume of 10 mL/kg. […]
Standardized irradiated diet (PROVIMI KLIBA) and autoclaved tap water are provided ad libitum. Microchips implanted subcutaneously under isoflurane anesthesia are used to identify each mouse. Cage cards showing the study number, the animal number, the compound and dose level, the administration route as well as the schedule remain with the animals throughout the study. The tumor diameter is measured two-three times a week with a caliper. The volume of each tumor [in mm^3] is calculated according to the formula “tumor volume=length*diameter2*π/6”. To monitor side effects of treatment, mice are inspected daily for abnormalities and body weight is determined daily. Animals are sacrificed at the end of the study. Animals with necrotic tumors or tumor sizes exceeding 1500 mm^3 are sacrificed early during the study for ethical reasons.
All compounds were applied twice daily per os (p.o.).

[2] = system: phosphorylation of MEK1/2 (Ser217/221) in MIA PaCa-2 cells (KRAS G12C); assay: MEK phosphorylation (Western blot) in MIA PaCa-2 cells; format: cell-based, human; details: MIA PaCa-2, 2D; 25 nM trametinib alone or with 1 μM I-13; 2 h, 4 h, 8 h
Excerpt: ERK and MEK Phosphorylation to Investigate the Combinatorial Effect of SOS1 Inhibitors with MEK Inhibitors
ERK and MEK phosphorylation assays are also used to investigate combinatorial effects of SOS1 inhibitors with MEK inhibitors, e.g. in MIA PaCa-2 cells.
• 96-well Ultra low binding plates from Corning (CLS2474-24EA); • DMEM (Lonza BE12-604F); • Fetal Bovine Serum (FBS) from HyClone (SH30071.03); • Cell lysate buffer (CLB):10× (Cell Signaling, Cat #9803)
For lysis of the cells a 1.2 fold concentrated CLB is used including the following supplements: 120 μL Cell Lysis Buffer 10×(Cell Signaling, Cat #9803)+870 μL H2O is supplemented with 10 μL HALT Protease & Phosphatase Inhibitor Cocktail (Thermo Scientific, Prod #1861281)+1 μL PMSF Stock sol. (Sigma, Cat #P7626) […]
ImageQuant LAS 4000 is used to induce a Chemilumescence signal that is detected with an Amersham Hyperfilm MP (GE Healthcare, Cat #28906847). […] Band quantification is performed by using the software “Image Quant TL” from GE Health.
MIA PaCa-2 cells are seeded at 1.16×E6 cells per 6 well plate in 2 mL DMEM medium supplemented with 2% FCS in 6 well plates. […] The protein concentration of the cell lysate is quantified by Bradford protein assay according to the manufacturer's instructions. […]
. Cell lysate was generated at the respective timepoints and the effect on ERK or MEK phosphorylation was analysed using Western-blotting. […]

[3] = system: phosphorylation of ERK1/2 (Thr202/Tyr204) in MIA PaCa-2 cells (KRAS G12C); details: MIA PaCa-2, 2D; 50 nM trametinib
Description: Secondary Antibody (incubated 1 h at room temperature): Use a blocking buffer with a 1:1000 dilution of the anti-Rabbit IgG-HRP (Dako, Cat #P0448)
ECL Western Blotting Detection Reagents (GE Healthcare, Cat #RPN2106)
The film is developed with the device Protec Optimax. Band quantification is performed by using the software “Image Quant TL” from GE Health.
Cells are incubated over night at 37° C. with 5% CO2. The next day inhibitors are added with a HP D300 digital Dispenser. Following addition of the respective inhibitor the 6-well plate is incubated for 24 h, 48 h or 72 h, respectively. At the respective timepoint cells are lysed. […] Following this the lysate is centrifuged (16000 rpm, 4° C. for 15 minutes) and the supernatant is stored at −80° C. and used for subsequent steps. The protein concentration of the cell lysate is quantified by Bradford protein assay according to the manufacturer's instructions. […]

[4] = system: cleaved PARP in NCI-H358 (KRAS G12C) NSCLC cells; format: cell-based, human; details: NCI-H358, 3D, 10% serum; 1 μM I-13, 125 nM afatinib, alone or combined; 24 h, 48 h, 72 h
[5] = target: SOS1 and KRAS G12D (protein-protein interaction) (Homo sapiens, UniProt Q07889); assay: KRAS::SOS1 AlphaScreen binding assay
Summary of the method: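 Compounds were tested in duplicate at 11 concentrations (1:5 serial from 100 μM, 1% DMSO). They were preincubated 30 min with final 10 nM KRAS G12D, 10 μM GDP and 5 nM GST-SOS1, then glutathione acceptor and streptavidin donor beads (10 μg/mL each) were added for 60 min at RT in the dark. AlphaScreen signal gave IC50 via 4-parameter logistic fit.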

[6] = values marked with * in the table, read-out: IC50 (SOS1)
[7] = assay buffer without EDTA (values not marked with an asterisk), read-out: IC50 (SOS1)

## CC(=O)O[C@H]1C(=O)[C@@]2(C)[C@H]([C@H](OC(=O)c3ccccc3)[C@]3(O)C[C@H](OC(=O)[C@H](O)[C@@H](NC(=O)c4ccccc4)c4ccccc4)C(C)=C1C3(C)C)[C@]1(OC(C)=O)CO[C@@H]1C[C@@H]2O [paclitaxel]
[1]; paclitaxel 10 mg/kg q7d i.v., day 22
  TGI: 62%

## CC(=O)Nc1cccc(-n2c(=O)n(C3CC3)c(=O)c3c(Nc4ccc(I)cc4F)n(C)c(=O)c(C)c32)c1 [trametinib]
[1]; trametinib 0.05 mg/kg twice daily p.o.
  TGI: 50%
[1]; trametinib 0.125 mg/kg or 0.05 mg/kg twice daily p.o.
  tumor regressions: no regressions in any tumors
[1]; trametinib 0.125 mg/kg twice daily p.o.
  TGI: 73%
[2]
  levels of phosphorylated MEK1/2 (Ser 217/221): increased levels of MEK1/2 (Ser 217/221)
[3]
  reduction of ERK1/2 (Thr 202/Tyr 204) phosphorylation levels compared to untreated control cells: 65-75%

## CN(C)C/C=C/C(=O)Nc1cc2c(Nc3ccc(F)c(Cl)c3)ncnc2cc1O[C@H]1CCOC1 [afatinib]
[4]
  apoptosis induction (levels of cleaved PARP): needed 48 h to show apoptosis induction

## Nc1ccn([C@@H]2O[C@H](CO)[C@@H](O)C2(F)F)c(=O)n1 [gemcitabine]
[1]; gemcitabine 50 mg/kg q4d i.p.
  TGI: 4%

## COc1cc2nc(C)nc(N[C@H](C)c3cc(N)cc(C(F)(F)F)c3F)c2cc1C1CCS(=O)(=O)CC1 [I-311]
[5]; read-out: IC50 (SOS1)
  IC50: 6 nM

## COCC(=O)N1CC=C(c2cc3c(N[C@H](C)c4cccc(C(F)(F)CO)c4)nc(C)nc3cc2OC)CC1 [I-286]
[5]; read-out: IC50 (SOS1)
  IC50: 2 nM

## Cc1nc(N[C@H](C)c2cc(N)cc(C(F)(F)F)c2)c2cc(C3CCS(=O)(=O)CC3)ccc2n1 [I-322]
[5]; read-out: IC50 (SOS1)
  IC50: 3 nM

## Cc1nc(N[C@H](C)c2cc(N)cc(C(F)(F)F)c2)c2cc([C@H]3CC[C@@H](C(=O)N(C)[C@@H]4CCOC4)CC3)ccc2n1 [I-243]
[5]; read-out: IC50 (SOS1)
  IC50: 9 nM

## COc1cc2nc(C)nc(N[C@H](C)c3cccc(C)c3)c2cc1-c1ccn(CC(=O)N(C)C)c(=O)c1 [I-338]
[5]; [6]
  IC50: 39 nM

## Cc1nc(N[C@H](C)c2cccc(C(F)(F)F)c2)c2cc(-c3cc4n(n3)CCC(=O)N4)c(C)cc2n1 [I-89]
[5]; [6]
  IC50: 34 nM

## Cc1nc(N[C@H](C)c2cccc(C(F)(F)F)c2)c2cc([C@]3(O)CC[C@H](C(=O)N(C)C)CC3)ccc2n1 [I-78]
[5]; [7]
  IC50: 27 nM

## Cc1nc(N[C@H](C)c2cccc(C(F)(F)F)c2)c2cc([C@]3(O)CC[C@H](O)CC3)ccc2n1 [I-59]
[5]
  IC50: 20 nM

## COc1cc2nc(C)nc(N[C@H](C)c3cccc(C(F)(F)CO)c3)c2cc1C1CCN(C(C)=O)CC1 [I-166]
[5]; [7]
  IC50: 2 nM

## COc1cc2nc(C)nc(N[C@H](C)c3cccc(C(F)(F)F)c3)c2cc1-c1ccc(C(=O)N(C)CCO)cc1 [I-214]
[5]; read-out: IC50 (SOS1)
  IC50: 40 nM

## COCCN(C)C(=O)[C@H]1CC[C@H](c2ccc3nc(C)nc(N[C@H](C)c4cc(N)cc(C(F)(F)F)c4)c3c2)CC1 [I-236]
[5]; read-out: IC50 (SOS1)
  IC50: 2 nM

## CC(=O)N1CCC(c2cc(C)c3nc(C)nc(N[C@H](C)c4cccc(C)c4)c3c2)CC1 [I-269]
[5]; read-out: IC50 (SOS1)
  IC50: 24 nM

## COCC(=O)N1CCC(c2cc(C)c3nc(C)nc(N[C@H](C)c4cccc(C)c4)c3c2)CC1 [I-270]
[5]; read-out: IC50 (SOS1)
  IC50: 21 nM

## CNC(=O)CC(C)c1cc2c(N[C@H](C)c3cccc(C(F)(F)F)c3)nc(C)nc2cc1C (some centres unmarked) [I-377]
[5]; read-out: IC50 (SOS1)
  IC50: 10 nM

## COCC(=O)N1CCC(c2cc3c(N[C@H](C)c4cc(N)cc(C(F)(F)F)c4F)nc(C)nc3cc2OC)CC1 [I-307]
[5]; read-out: IC50 (SOS1)
  IC50: 3 nM

— patent publication US12053473B2, “Benzylamino substituted quinazolines and derivatives as SOS1 inhibitors” (priority 2016, dated 2024)
